These results are taken from ChEMBL document CHEMBL3244037, “6-Aryl-4H-s-triazolo[4,3-a][1,4]benzodiazepines. Influence of 1-substitution on pharmacological activity” (J Med Chem, 1979).

In assay [1] the test system is Mus musculus. The experiment in a line: Inhibition of apomorphine-induced cage climbing in ip dosed albino CF1 mouse compound administered prior to challenge measured for 5 mins after 5 mins of challenge. It is filed as functional.
In assay [2] the test system is Mus musculus. The experiment in a line: […] activity in ip dosed albino CF1 mouse assessed as potentiation of gamma-butyrolactone-induced sleep. It is filed as functional.
Assay [3] deals with Mus musculus. The experiment in a line: Anticonvulsant activity in ip dosed albino CF1 mouse assessed as inhibition of bicucullin-induced tonic extensor convulsions. Format: functional.
Assay [4] concerns Mus musculus. Kind of assay: Inhibition of oxotremorine-induced hypothermia in ip dosed albino CF1 mouse. It is filed as functional.
Assay [5] relates to Mus musculus. Kind of assay: Hypothermic activity in ip dosed albino CF1 mouse assessed as effect on body temperature measured after 45 mins. Format: functional. As to conditions: 0.75 h.
Assay [6] concerns Mus musculus. Kind of assay: Reduction of hypoxic stress in ip dosed albino CF1 mouse assessed as prolongation of hypoxic survival time. Format: functional.
Assay [7] concerns Mus musculus. The experiment in a line: Potentiation of apomorphine-induced gnawing in ip dosed albino CF1 mouse. It is filed as organism-based.
In assay [8] the test system is Mus musculus. The experiment in a line: Inhibition of amphetamine aggregation toxicity in ip dosed albino CF1 mouse compound administered 1 hr prior to challenge measured after 2 hrs. Format: functional.
Assay [9] relates to Mus musculus. Kind of assay: Anticonvulsant activity in ip dosed albino CF1 mouse assessed as protection against pentylenetetrazole-induced clonic convulsions. It is filed as functional.
The subject of assay [10] is Mus musculus. The experiment in a line: Potentiation of yohimbine toxicity in ip dosed aggregated albino CF1 mouse. It is filed as organism-based.

A value given as a limit tells only on which side of the number the result lay.

As to `COC(=O)Cc1nnc2n1-c1ccc(Cl)cc1C(c1ccccc1)=NC2`, the ED50 in assay [1], in assay [2], in assay [3], in [4], in assay [5] and in [6] was over 50 mg/kg each time. Also, the ED50 in assay [7], in assay [8], in [9] and in assay [10] was over 50 mg/kg each time.

With `CCN1CCN(c2nnc3n2-c2ccccc2C(c2ccccc2Cl)=NC3)CC1`, the ED50 is over 50 mg/kg in assay [1]; over 50 mg/kg in assay [2]; 7 mg/kg in assay [3]; 40 mg/kg in assay [4]; 2 mg/kg in assay [5]; 4 mg/kg in assay [6]. Moreover, the ED50 is over 50 mg/kg in [7], over 50 mg/kg in assay [8], 2 mg/kg in [9] and 30 mg/kg in [10].

With `CN1CCN(c2nnc3n2-c2ccc(Cl)cc2C(c2ccccc2)=NC3)CC1`, the 50% effective dose (ED50) in [1] was over 50 mg/kg; in assay [2], 0.7 mg/kg; in [3] it was 10.5 mg/kg; in assay [4] it was 7.4 mg/kg; in assay [5], over 50 mg/kg; in [6], over 50 mg/kg. In addition, the ED50 was 17.7 mg/kg in assay [7], over 50 mg/kg in [8], 1.6 mg/kg in assay [9] and over 50 mg/kg in assay [10].

On to `CCN(CC)CCOc1nnc2n1-c1ccc(Cl)cc1C(c1ccccc1)=NC2`, for which the ED50 was over 50 mg/kg in [1]; 2.2 mg/kg in [2]; 12.5 mg/kg in assay [3]; over 50 mg/kg in assay [4]; over 50 mg/kg in [5]; 40 mg/kg in assay [6]. Moreover, the 50% effective dose (ED50) was over 50 mg/kg in [7], over 50 mg/kg in assay [8], 8.8 mg/kg in assay [9] and 42 mg/kg in [10].

In the case of `Cc1nnc2n1-c1ccc(Br)cc1C(c1ccccc1)=NC2`, the ED50 in assay [1] is 20 mg/kg; in [2] it was 0.8 mg/kg; in assay [3] it was 0.5 mg/kg; in [4] it was over 50 mg/kg; in assay [5] it was 20 mg/kg; in [6], 2 mg/kg. The ED50 was over 50 mg/kg in assay [7], over 50 mg/kg in [8], 0.6 mg/kg in [9] and over 50 mg/kg in [10].

As for `Nc1nnc2n1-c1ccc(Cl)cc1C(c1ccccc1)=NC2`, the ED50 in [1] was over 50 mg/kg; in [2], 2 mg/kg; in assay [3] it was 20 mg/kg; in assay [4], over 50 mg/kg; in [5] it was 9 mg/kg; in assay [6], over 50 mg/kg. Moreover, the ED50 was over 50 mg/kg in [7], over 50 mg/kg in assay [8], 14 mg/kg in [9] and over 50 mg/kg in [10].

As to `OCCN1CCN(c2nnc3n2-c2ccc(Cl)cc2C(c2ccccc2)=NC3)CC1`, the ED50 in assay [1] was over 50 mg/kg; in assay [2] it was 1.6 mg/kg; in assay [3] it was 8.8 mg/kg; in [4], over 50 mg/kg; in assay [5], over 50 mg/kg; in assay [6] it was over 50 mg/kg. For the same compound, the ED50 in assay [7] is 25 mg/kg; in assay [8], over 50 mg/kg; in [9] it was 42 mg/kg; in [10], over 50 mg/kg.

For the compound `CN1CCN(c2nnc3n2-c2ccccc2C(c2ccccc2)=NC3)CC1`, the ED50 in assay [1] is 25 mg/kg; in assay [2] it was over 50 mg/kg; in assay [3], over 50 mg/kg; in assay [4], 35.4 mg/kg; in assay [5], 12.5 mg/kg; in assay [6], over 50 mg/kg. For the same compound, the ED50 was over 50 mg/kg in assay [7], over 50 mg/kg in assay [8], 14.9 mg/kg in assay [9] and over 50 mg/kg in [10].

For `Clc1ccccc1C1=NCc2nnc(N3CCOCC3)n2-c2ccccc21`, the ED50 in assay [1] was over 50 mg/kg; in assay [2], 0.8 mg/kg; in assay [3], 10.5 mg/kg; in [4], over 50 mg/kg; in assay [5], over 50 mg/kg; in [6], 0.015 mg/kg. For the same compound, the 50% effective dose (ED50) was over 50 mg/kg in assay [7], over 50 mg/kg in assay [8], 1.6 mg/kg in assay [9] and over 50 mg/kg in [10].

`Clc1ccccc1C1=NCc2nnc(Br)n2-c2ccccc21`: the ED50 in assay [1] was over 50 mg/kg; in [2], 6.2 mg/kg; in [3] it was 25 mg/kg; in assay [4] it was over 50 mg/kg; in [5], over 50 mg/kg; in assay [6], 8.8 mg/kg. For the same compound, the median effective dose (ED50) in assay [7] was over 50 mg/kg; in assay [8] it was over 50 mg/kg; in assay [9], 10.5 mg/kg; in [10], over 50 mg/kg.

In the case of `CN(C)c1nnc2n1-c1ccc(Cl)cc1C(c1ccccc1)=NC2`, the 50% effective dose (ED50) is over 50 mg/kg in assay [1]; 0.3 mg/kg in assay [2]; 1.1 mg/kg in [3]; 21 mg/kg in assay [4]; over 50 mg/kg in assay [5]; 9 mg/kg in [6]. The ED50 in assay [7] was over 50 mg/kg; in [8], over 50 mg/kg; in assay [9] it was 0.9 mg/kg; in assay [10], over 50 mg/kg.

For `CC1N=C(c2ccccc2)c2cc(Cl)ccc2-n2c1nnc2N1CCOCC1` (stereo not given), the ED50 in [1] is over 50 mg/kg; in assay [2], 0.7 mg/kg; in assay [3], 3 mg/kg; in assay [4] it was 10 mg/kg; in assay [5], over 50 mg/kg; in assay [6], 3 mg/kg. Further, the ED50 in assay [7] was over 50 mg/kg; in assay [8], over 50 mg/kg; in assay [9] it was 0.4 mg/kg; in [10], 20 mg/kg.

For `c1ccc(C2=NCc3nnc(N4CCOCC4)n3-c3ccccc32)cc1`, the ED50 in [1] is over 50 mg/kg; in assay [2], 20 mg/kg; in assay [3] it was over 50 mg/kg; in assay [4], over 50 mg/kg; in assay [5], over 50 mg/kg; in [6] it was over 50 mg/kg. Also, the ED50 in [7] is over 50 mg/kg; in assay [8] it was over 50 mg/kg; in assay [9] it was 9 mg/kg; in assay [10], over 50 mg/kg.

For `Sc1nnc2n1-c1ccc(Cl)cc1C(c1ccccc1)=NC2`, the 50% effective dose (ED50) in assay [1] was over 50 mg/kg; in [2], 0.8 mg/kg; in [3], 3 mg/kg; in assay [4], over 50 mg/kg; in assay [5] it was 9 mg/kg; in [6], 9 mg/kg. The ED50 is over 50 mg/kg in assay [7], over 50 mg/kg in assay [8], 2.3 mg/kg in assay [9] and over 50 mg/kg in assay [10].

As for `CN(C)CCN(C)c1nnc2n1-c1ccc(Cl)cc1C(c1ccccc1)=NC2`, the ED50 in assay [1] was over 50 mg/kg; in assay [2] it was 12.5 mg/kg; in assay [3], 42 mg/kg; in assay [4], over 50 mg/kg; in assay [5], 40 mg/kg; in [6] it was over 50 mg/kg. Further, the ED50 in [7] is over 50 mg/kg; in [8], over 50 mg/kg; in assay [9], 30 mg/kg; in assay [10], over 50 mg/kg.

On to `Clc1ccc2c(c1)C(c1ccccc1)=NCc1nnc(N3CCNCC3)n1-2`, for which the ED50 in assay [1] was over 50 mg/kg; in [2], over 50 mg/kg; in assay [3], over 50 mg/kg; in [4] it was 34 mg/kg; in assay [5], over 50 mg/kg; in assay [6], over 50 mg/kg. Further, the ED50 in assay [7], in assay [8], in [9] and in [10] was over 50 mg/kg throughout.

For `CN(C)CCSc1nnc2n1-c1ccc(Cl)cc1C(c1ccccc1)=NC2`, the ED50 in assay [1] was over 50 mg/kg; in [2], 1.6 mg/kg; in assay [3] it was 7.4 mg/kg; in [4] it was over 50 mg/kg; in assay [5], over 50 mg/kg; in [6], over 50 mg/kg. For the same compound, the ED50 was over 50 mg/kg in assay [7], over 50 mg/kg in [8], 3.1 mg/kg in assay [9] and over 50 mg/kg in assay [10].

As to `Clc1ccc2c(c1)C(c1ccccc1)=NCc1nnc(C(Cl)Cl)n1-2`, the ED50 in [1] was over 50 mg/kg; in [2] it was 3 mg/kg; in assay [3], 10 mg/kg; in [4], over 50 mg/kg; in [5] it was over 50 mg/kg; in assay [6], over 50 mg/kg. Moreover, the ED50 in assay [7] is over 50 mg/kg; in [8], over 50 mg/kg; in assay [9], 8 mg/kg; in assay [10], over 50 mg/kg.

Consider `CC1N=C(c2ccccc2)c2cc(Cl)ccc2-n2c(Br)nnc21` (stereo not given), for which the median effective dose (ED50) in assay [1] was over 50 mg/kg; in assay [2], 3.1 mg/kg; in assay [3] it was 1.9 mg/kg; in assay [4], over 50 mg/kg; in assay [5], over 50 mg/kg; in [6], over 50 mg/kg. Also, the ED50 in assay [7] was over 50 mg/kg; in assay [8] it was over 50 mg/kg; in [9] it was 3.7 mg/kg; in assay [10], over 50 mg/kg.

Consider `Cc1nnc2n1-c1ccc(Cl)cc1C(c1ccccc1)=NC2` [ALPRAZOLAM], for which the ED50 in [1] was over 50 mg/kg; in assay [2], 0.08 mg/kg; in assay [3] it was 0.2 mg/kg; in [4] it was over 50 mg/kg; in assay [5], over 50 mg/kg; in assay [6] it was 0.2 mg/kg. Moreover, the ED50 in assay [7] was over 50 mg/kg; in assay [8] it was over 50 mg/kg; in [9] it was 0.1 mg/kg; in [10], over 50 mg/kg.

Regarding `Cc1nnc2n1-c1ccc(N)cc1C(c1ccccc1Cl)=NC2`, the ED50 in [1] was over 50 mg/kg; in assay [2], 0.7 mg/kg; in assay [3], 0.9 mg/kg; in assay [4] it was over 50 mg/kg; in assay [5] it was 30 mg/kg; in assay [6], 4 mg/kg. Also, the median effective dose (ED50) is over 50 mg/kg in assay [7], over 50 mg/kg in [8], 2 mg/kg in assay [9] and over 50 mg/kg in [10].

In general, ED50 refers to the dose at which the effect has come halfway, by size or by number of responders.
